Results reported in PubChem BioAssay AID720622 (The Scripps Research Institute Molecular Screening Center, 2013).
pIC50: −log10 of the molar value.

Experiment: whole-trypanosome antiproliferative activity – absorbance, counter-screen for T. brucei MetRS inhibitor project, late-stage follow-up (AID 720622)
Conditions: T. brucei bloodstream form 427 growth, AlamarBlue fluorescence, 48 h; run 1

| SMILES | pIC50 |
| --- | --- |
| CCO[C@H]1OC(C(=O)NCc2nc3ccccc3[nH]2)=C[C@@H](c2ccc(Br)cc2)[C@@H]1CCCO | < 5.00 |
| CC(CC(=O)Nc1cccc(Br)c1)=NNC(=O)c1ccc(O)cc1O | < 5.00 |
| O=C(NCc1nc2ccccc2[nH]1)C1=C[C@@H](c2ccc3c(c2)OCO3)C[C@@H](OCCCCO)O1 | < 5.00 |
| COc1cccc(NC(=O)CSc2nnc3c(n2)[nH]c2ccc(C)cc23)c1 | < 5.00 |
| C[C@H](O)[C@@H]1C(=O)N2CCc3c([nH]c4ccccc34)[C@@H]2C[C@@H]1N(C)Cc1ccc2c(c1)OCO2 | < 5.00 |
| CC(C)(C)[C@H]1C=C(C(=O)NCc2nc3ccccc3[nH]2)O[C@@H](OCc2ccc(CO)cc2)C1 | < 5.00 |
| O=C(CC=NOCc1ccc([N+](=O)[O-])cc1)Nc1ccc(Br)cc1 | < 5.00 |
| CC(=O)c1c[nH]c(C(=O)NCc2cccc(C(F)(F)F)c2)c1 | < 5.00 |
| Oc1c(Cl)cc(Cl)cc1CNc1nc2ccccc2[nH]1 | < 5.00 |
| O=C1CC(N(CCc2ccccc2)C(=S)Nc2ccccc2)C(=O)N1c1ccc(Br)cc1 (configuration not stated) | 5.71 |
| O=C(NCc1nc2ccccc2[nH]1)C1=C[C@@H](c2ccc(Br)cc2)C[C@@H](OCCCCO)O1 | 5.18 |
| O=C(CC(=O)Nc1cccc(Cl)c1)NN=Cc1ccccc1 | < 5.00 |
| COc1ccccc1-n1c(SCC(=O)Nc2ccc(Cl)cc2)nc(O)c(Cc2ccccc2)c1=O | < 5.00 |
| COc1ccc(CNC(=O)CSc2nnc3c(n2)[nH]c2ccc(F)cc23)cc1 | < 5.00 |
| O=C(NCc1nc2ccccc2[nH]1)C1=C[C@@H](c2csc3ccccc23)C[C@@H](OCCCCO)O1 | < 5.00 |
| CN(CC(=O)Nc1ccc(Cl)cc1)C(=O)c1ccc(-n2cncn2)c([N+](=O)[O-])c1 | < 5.00 |
| Clc1ccc(-c2nnc(SCc3nc4ccccc4[nH]3)o2)c(Cl)c1 | < 5.00 |
| O=C(Cn1cnc2ccccc21)Nc1cccc([N+](=O)[O-])c1 | < 5.00 |
| COc1ccc(OCC(O)CNC(=O)Nc2ccc(Cl)cc2)cc1 (configuration not stated) | < 5.00 |
| CN1CC(=O)N2C(c3cccc([N+](=O)[O-])c3)c3[nH]c4ccccc4c3C[C@H]2C1=O (some centres not stated) | < 5.00 |
| CCOC(=O)N1CCC(Nc2c(Nc3ccc(F)cc3)c(=O)c2=O)CC1 | 5.06 |
| O=C(NCc1nc2ccccc2[nH]1)C1=C[C@H](C2CC2)C[C@H](OCc2ccc(CO)cc2)O1 | < 5.00 |
| CC(C)OCCCN1CC(=O)N2C(c3cccc([N+](=O)[O-])c3)c3[nH]c4ccccc4c3C[C@H]2C1=O (some centres not stated) | < 5.00 |
| Cc1[nH]c2ccc(Br)cc2c(=O)c1CN1CCCCCC1 | < 5.00 |
| CC(C)(C)[C@@H]1C=C(C(=O)NCc2nc3ccccc3[nH]2)O[C@H](OCc2ccc(CO)cc2)C1 | < 5.00 |
| O=C(C[C@H]1C(=O)N(Cc2ccccc2)C[C@@H]1c1ccc(Br)cc1)Nc1ccc(Br)cc1 | 5.40 |
| O=C(Cn1cc(C(=O)C(=O)N2CCOCC2)c2ccccc21)Nc1cccc(C(F)(F)F)c1 | 5.45 |

| SMILES | pIC50 |
| --- | --- |
| CN(Cc1cc(Cl)cc(Cl)c1)[C@H]1C[C@H]2c3[nH]c4ccccc4c3CCN2C(=O)[C@H]1CO | 5.70 |
| O=C(CN1CCSC1=NCc1ccccc1)c1ccc(Cl)c(Cl)c1 | < 5.00 |
| O=C(Nc1ccc(F)c(Cl)c1)C1CC(=O)n2c(nc3ccccc32)N1 (configuration not stated) | < 5.00 |
| O=C1[C@@H]2Cc3c([nH]c4ccccc34)C(c3cccc([N+](=O)[O-])c3)N2C(=O)CN1CCCO (some centres not stated) | < 5.00 |
| O=C(CCC(=O)Nc1cccc([N+](=O)[O-])c1)NN=Cc1cccs1 | < 5.00 |
| O=C(NCc1nc2ccccc2[nH]1)C1=C[C@H](c2csc3ccccc23)C[C@H](OCCCCO)O1 | 5.40 |
| O=C(NCc1nc2ccccc2[nH]1)C1=C[C@H](c2ccc(Br)cc2)C[C@H](OCCCCO)O1 | < 5.00 |
| Cc1ccc(NC(=O)CN(C)C(=O)CCSc2ccc(F)cc2)cc1 | < 5.00 |
| O=C(NCc1nc2ccccc2[nH]1)C1=C[C@H](c2ccc(Br)cc2)C[C@H](OCc2ccc(CO)cc2)O1 | 5.01 |
| O=C(NCCc1nc2ccccc2[nH]1)c1ccc(Cl)c([N+](=O)[O-])c1 | 5.30 |
| O=C(NNC(=O)c1cc(-c2ccc(Cl)c(Cl)c2)nc2ccccc12)Nc1ccccc1 | 5.28 |
| COc1ccccc1NS(=O)(=O)c1cccc(NC(=O)Nc2ccccc2)c1 | 5.22 |
| O=C1CC(SCc2nc3ccccc3[nH]2)C(=O)N1c1cccc(Cl)c1 (configuration not stated) | < 5.00 |
| CC(=O)c1ccc(N2CCN(C(=O)CCCn3c(=O)[nH]c4ccc(Br)cc4c3=O)CC2)cc1 | < 5.00 |
| Brc1cnc2nc(SCc3nc4ccccc4[nH]3)[nH]c2c1 | < 5.00 |
| O=C(NNC(=O)c1ccc(-n2cncn2)c([N+](=O)[O-])c1)c1ccc(Cl)cc1 | < 5.00 |
| O=C(NCc1nc2ccccc2[nH]1)C1=C[C@@H](C2CC2)C[C@@H](OCc2ccc(CO)cc2)O1 | < 5.00 |
| O=C(NCc1nc2ccccc2[nH]1)C1=C[C@@H](c2ccc(Br)cc2)C[C@@H](OCc2ccc(CO)cc2)O1 | 5.36 |
| O=C(NCc1nc2ccccc2[nH]1)C1=C[C@H](c2ccc3c(c2)OCO3)C[C@H](OCCCCO)O1 | < 5.00 |
| CCO[C@@H]1OC(C(=O)NCc2nc3ccccc3[nH]2)=C[C@H](c2ccc(Br)cc2)[C@H]1CCCO | < 5.00 |
| O=C(NCc1nc2ccccc2[nH]1)C1=C[C@H](c2ccccc2)C[C@H](OCc2ccc(CO)cc2)O1 | < 5.00 |
| COc1ccc2[nH]c3nc(SCC(=O)Nc4ccc5c(c4)OCO5)nnc3c2c1 | < 5.00 |
| Clc1ccc(OCCSCc2nc3ccccc3[nH]2)cc1 | < 5.00 |
| CCCCCCCCCC1NC(C(=O)O)Cc2c1[nH]c1ccccc21 (configuration not stated) | < 5.00 |
| O=C(N/C(=C\c1cccnc1)c1nc2ccccc2[nH]1)c1cccc(Br)c1 | < 5.00 |
| O=C(CC=NOCc1ccc([N+](=O)[O-])cc1)Nc1ccc(Cl)cc1 | < 5.00 |
| O=C(NCc1nc2ccccc2[nH]1)C1=C[C@@H](c2ccccc2)C[C@@H](OCc2ccc(CO)cc2)O1 | < 5.00 |

Same assay, conditions: T. brucei bloodstream form 427 growth, AlamarBlue fluorescence, 48 h; run 2

| SMILES | pIC50 |
| --- | --- |
| O=C1CC(N(CCc2ccccc2)C(=S)Nc2ccccc2)C(=O)N1c1ccc(Br)cc1 (configuration not stated) | 5.56 |
| O=C(Cn1cc(C(=O)C(=O)N2CCOCC2)c2ccccc21)Nc1cccc(C(F)(F)F)c1 | 5.74 |
| CN(Cc1cc(Cl)cc(Cl)c1)[C@H]1C[C@H]2c3[nH]c4ccccc4c3CCN2C(=O)[C@H]1CO | 5.58 |
